The record followed here is ChEMBL document CHEMBL3525899, “Identification of the cytochrome P450 and other enzymes involved in the in vitro oxidative metabolism of a novel antidepressant, Lu AA21004” (Drug Metab Dispos, 2012).

The structures appear in SMILES notation.

Data set [1] deals with Liver microsome. In words: Drug metabolism in pooled human liver microsomes assessed as formation of 4-(2-(2,4-dimethylphenylthio)phenyl)piperazin-1-ol at 100 uM after 30 to 180 mins by HPLC/MS-MS analysis in presence of NADPH regenerating system with NADP+. The class given is ADME. Background: Liver microsomes are vesicles of endoplasmic reticulum, rich in cytochrome P450 enzymes.

In data set [2] the test system is Liver microsome. In words: Drug metabolism in phenotyped human liver microsomes assessed as formation of 1-(2-(2,4-dimethylphenylsulfinyl)phenyl)piperazine at 8 to 50 uM after 60 mins by HPLC/MS-MS analysis in presence of NADPH regenerating system with NADP+. The class given is ADME. The following applies: 1 h.
Data set [3] deals with T1, Cytochrome P450 1A2 (Homo sapiens, UniProt P05177).
T1 sequence (P05177 whole entry): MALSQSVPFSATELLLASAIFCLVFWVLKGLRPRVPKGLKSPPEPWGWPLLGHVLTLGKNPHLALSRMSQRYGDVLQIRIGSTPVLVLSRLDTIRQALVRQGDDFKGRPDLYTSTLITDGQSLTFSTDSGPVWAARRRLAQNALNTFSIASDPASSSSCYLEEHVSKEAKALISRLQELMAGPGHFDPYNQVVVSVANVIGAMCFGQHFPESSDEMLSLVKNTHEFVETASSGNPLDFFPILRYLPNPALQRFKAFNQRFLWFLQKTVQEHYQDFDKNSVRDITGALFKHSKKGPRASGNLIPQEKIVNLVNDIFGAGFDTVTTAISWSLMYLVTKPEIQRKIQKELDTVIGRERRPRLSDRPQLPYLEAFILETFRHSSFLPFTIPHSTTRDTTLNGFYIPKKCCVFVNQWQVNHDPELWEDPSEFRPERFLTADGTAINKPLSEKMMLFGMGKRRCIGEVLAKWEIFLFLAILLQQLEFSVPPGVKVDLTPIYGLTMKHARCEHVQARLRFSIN
In words: Activity of human recombinant CYP1A2 expressed in microsomes isolated from human AHH-1 cells assessed as enzyme-mediated 3-(2,4-dimethylphenylthio)-4-(piperazin-1-yl)phenol formation at 8 to 50 uM after 120 mins by HPLC/MS-MS analysis in presence of NADPH regenerating system with NADP+. To be noted: 2 h. The class given is ADME, cell-free.

Regarding `Br.Cc1ccc(Sc2ccccc2N2CCNCC2)c(C)c1` [VORTIOXETINE HYDROBROMIDE], the Drug metabolism entry is “metabolite_detected” in data set [1], “metabolite_detected” in data set [2] and “metabolite_not_detected” in data set [3].
